Source: patent publication US5488060A, “Substituted thiadiazoles, compositions containing them and their use as antimicrobial and marine antifouling agents” (The Dow Chemical Company, priority 1994, dated 1996)
≈ marks a conversion by molar mass, not a printed value. Where two headings read alike, the source gives them in different places.

Key:
Format in all cases: cell-based
[1] = tested on: Klebsiella pneumoniae (Kp); test: Minimum inhibitory concentration (MIC) in nutrient agar, Klebsiella pneumoniae
How it was run: (§1)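 Bacteria were grown 24 h at 30° C in nutrient broth with shaking, then diluted to 10^8 CFU/mL. These suspensions were stamped onto dried nutrient agar plates, neutral (pH 6.8) and alkaline (pH 8.2), that held compound at final 500–1.0 ppm. The plates were incubated 48 h at 30° C.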

[2] = tested on: Pseudomonas aeruginosa (PRD-10); test: Minimum inhibitory concentration (MIC) in nutrient agar, Pseudomonas aeruginosa PRD-10
How it was run: as §1

Trichoderma viride (Tv) = test: Minimum inhibitory concentration (MIC) in malt yeast agar, Trichoderma viride
How it was run: (§2)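 Plates of pH 5.5 malt yeast agar carried test compound dispersed from a one percent acetone–water solution, final 500 to zero ppm. After diluted slant-culture suspensions were applied, plates were kept at 30 °C and examined at 72 h for fungi, 48 h for yeast.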

[3] = tested on: Staphylococcus aureus (Sa); test: Minimum inhibitory concentration (MIC) in nutrient agar, Staphylococcus aureus
How it was run: as §1

Candida albicans (Ca) = test: Minimum inhibitory concentration (MIC) in malt yeast agar, Candida albicans
How it was run: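 Malt yeast agar pH 5.5 + cpd (from 1% soln in acetone/water) at final 500–zero ppm, poured at 48 °C, dried 24 h. Inoculum: 7-day 30 °C slants suspended in saline/octylphenoxy polyethoxy ethanol, diluted 1:9, replicator-spotted. Incubated 30 °C; read 48 h yeast, 72 h fungi.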

[4] = tested on: Penicillium chrysogenum (Pc); test: Minimum inhibitory concentration (MIC) in malt yeast agar, Penicillium chrysogenum; conditions: 72 h, pH 5.5, read-out: Minimum Inhibitory Concentration, PC
How it was run: as §2

Aspergillus niger (An) = test: Minimum inhibitory concentration (MIC) in malt yeast agar, Aspergillus niger; conditions: 72 h, pH 5.5, read-out: Minimum Inhibitory Concentration, An
How it was run: as §2

[5] = pH 6.8, nutrient agar, 30° C., 48 hours, read-out: Minimum Inhibitory Concentration, Kp
[6] = 48 h, pH 8.2, read-out: Minimum Inhibitory Concentration, PRD
[7] = pH 6.8, nutrient agar, 30° C., 48 hours, read-out: Minimum Inhibitory Concentration, Sa

| SMILES | MIC ([1]; 48 h, pH 8.2, read-out: Minimum Inhibitory Concentration, Kp) [mg/L] | MIC [1, 5] [mg/L] | MIC ([2]; 48 h, pH 6.8, read-out: Minimum Inhibitory Concentration, PRD) [mg/L] | MIC [2, 6] [mg/L] | MIC (Trichoderma viride (Tv); pH 5.5, malt yeast agar, 30° C., 72 hours for fungi, read-out: Minimum Inhibitory Concentration, Tv) [mg/L] | MIC ([3]; 48 h, pH 8.2, read-out: Minimum Inhibitory Concentration, Sa) [mg/L] | MIC [3, 7] [mg/L] | MIC (Candida albicans (Ca); 48 h, pH 5.5, read-out: Minimum Inhibitory Concentration, Ca) [mg/L] | MIC ([1]; pH 8.2, nutrient agar, 30° C., 48 hours, read-out: Minimum Inhibitory Concentration, Kp) [mg/L] | MIC ([2]; pH 6.8, nutrient agar, 30° C., 48 hours, read-out: Minimum Inhibitory Concentration, PRD) [mg/L] | MIC (Trichoderma viride (Tv); 72 h, pH 5.5, read-out: Minimum Inhibitory Concentration, Tv) [mg/L] | MIC ([3]; pH 8.2, nutrient agar, 30° C., 48 hours, read-out: Minimum Inhibitory Concentration, Sa) [mg/L] | MIC [4] [mg/L] | MIC (Aspergillus niger (An)) [mg/L] | MIC (Candida albicans (Ca); pH 5.5, malt yeast agar, 30° C., 48 hours for yeast, read-out: Minimum Inhibitory Concentration, Ca) [mg/L] |
| --- | --- | --- | --- | --- | --- | --- | --- | --- | --- | --- | --- | --- | --- | --- | --- |
| N#CSc1nsnc1-c1ccccc1 [Example I, 4-Phenyl-3-thiocyanato-1,2,5-thiadiazole] | 500 (≈ 2280 µM) | 25 (≈ 114 µM) | > 500 | > 500 | 2.5 (≈ 11.4 µM) | 500 (≈ 2280 µM) | 25 (≈ 114 µM) | 2.5 (≈ 11.4 µM) | – | – | – | – | – | – | – |
| N#CSCSc1nsnc1-c1ccccc1 [Example XVI, 4-Phenyl-3-thiocyanato-methylthio-1,2,5-thiadiazole] | – | 25 (≈ 94.2 µM) | – | 50 (≈ 188 µM) | – | – | 25 (≈ 94.2 µM) | – | 100 (≈ 377 µM) | 25 (≈ 94.2 µM) | 10 (≈ 37.7 µM) | 50 (≈ 188 µM) | 2.5 (≈ 9.42 µM) | 2.5 (≈ 9.42 µM) | 5 (≈ 18.8 µM) |
